According to patent publication US20260199564A1, “METHOD OF PREVENTING BLOOD COAGULATION AND DRUG-ELUTING IMPLANT FOR PERCUTANEOUS CORONARY INTERVENTION” (priority 2023, published 2026):

Tests used:
CYP1A2 = target: T1, CYP1A2 (Homo sapiens, UniProt P05177); assay: Cytochrome P450 inhibition in human liver microsomes using LC-MS/MS, CYP1A2; format: in vitro ADME
T1 construct: with pooled human liver microsomes; from tissue; host or cells: pooled human liver microsomes
T1 sequence (P05177 1-516): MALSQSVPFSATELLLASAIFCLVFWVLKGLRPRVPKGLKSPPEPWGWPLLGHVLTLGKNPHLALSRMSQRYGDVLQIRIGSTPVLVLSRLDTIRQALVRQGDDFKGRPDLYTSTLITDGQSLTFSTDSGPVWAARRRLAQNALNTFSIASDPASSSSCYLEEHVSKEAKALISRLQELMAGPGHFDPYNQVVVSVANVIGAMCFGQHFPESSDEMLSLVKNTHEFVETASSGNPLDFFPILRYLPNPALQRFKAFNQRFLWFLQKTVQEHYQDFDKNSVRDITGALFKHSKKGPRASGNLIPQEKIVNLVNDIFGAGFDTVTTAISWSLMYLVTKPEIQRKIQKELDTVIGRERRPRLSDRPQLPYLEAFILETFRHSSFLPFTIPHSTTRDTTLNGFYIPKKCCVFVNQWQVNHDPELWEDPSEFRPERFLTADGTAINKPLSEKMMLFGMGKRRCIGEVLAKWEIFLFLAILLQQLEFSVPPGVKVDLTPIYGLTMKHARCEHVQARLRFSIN
Procedure: (§1) In IC50 shift experiments, CK (0.2 μL prepared in DMSO) was pre-incubated for 30 min at 37° C., at 8 different concentrations, with pooled human liver microsomes (0.1-1 mg/mL, depending on which enzyme was assessed) in the absence or presence of 1 mM NADPH in 100 μL of potassium phosphate buffer (100 mM, pH 7.4) and MgCl2 (2.5 mM). After the pre-incubation, a substrate mixture containing a probe substrate in 100 μL of potassium phosphate buffer (100 mM, pH 7.4), MgCl2 (2.5 mM), and NADPH (1 mM) was added for measurement of the corresponding P450 activities. Incubations were terminated by addition of 200 μL methanol. Samples were then extracted and centrifuged and the supernatant was subjected to validated LC-MS/MS analysis.

CYP2C8 = target: T2, CYP2C8 (Homo sapiens, UniProt P10632); assay: Cytochrome P450 inhibition in human liver microsomes using LC-MS/MS, CYP2C8; format: in vitro ADME
T2 construct: with pooled human liver microsomes; from tissue; host or cells: pooled human liver microsomes
T2 sequence (P10632 1-490): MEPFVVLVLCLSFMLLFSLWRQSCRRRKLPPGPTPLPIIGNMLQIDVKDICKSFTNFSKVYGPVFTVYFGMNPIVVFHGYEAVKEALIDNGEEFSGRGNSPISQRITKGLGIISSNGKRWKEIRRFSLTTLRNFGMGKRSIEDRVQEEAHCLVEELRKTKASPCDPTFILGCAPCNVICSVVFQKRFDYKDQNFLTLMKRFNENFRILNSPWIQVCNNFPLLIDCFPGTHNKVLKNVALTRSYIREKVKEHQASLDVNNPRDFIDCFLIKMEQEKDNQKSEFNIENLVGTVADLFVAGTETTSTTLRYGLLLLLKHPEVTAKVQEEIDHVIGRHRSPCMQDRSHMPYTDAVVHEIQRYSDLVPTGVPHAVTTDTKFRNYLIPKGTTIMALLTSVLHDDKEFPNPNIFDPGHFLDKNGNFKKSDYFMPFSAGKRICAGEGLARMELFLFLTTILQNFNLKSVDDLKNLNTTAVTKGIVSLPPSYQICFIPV
Procedure: as §1

VCAM-1 = assay: LPS-induced VCAM-1 mRNA expression in HUVECs; format: cell-based, human; conditions: 1, 3, 10 μM for 1 h prior to LPS (1 μg/ml) stimulation for 24 h
Procedure: HUVECs were treated for 1 h with ginsenoside CK (1 μM, 3 μM, and 10 μM) prior to LPS (1 μg/ml) stimulation for 24 h. (A) ICAM-1 (B) VCAM-1 mRNA expression. Values are means±SEM of 3 independent experiments. Statistical significance assessed by one-way ANOVA followed by Scheffe post-hoc test for multiple comparisons (***P<0.01, *P<0.05 vs LPS).
Treatment of HUVECs with LPS (1 μg/ml) increased ICAM-1 and VCAM-1 mRNA expression. Twenty-four hours after LPS treatment, maximal expression of ICAM-1 and VCAM-1 was attained. To determine whether LPS-stimulated ICAM-1 and VCAM-1 mRNA expression is affected by ginsenoside CK, HUVECs were treated for 1 h with ginsenoside CK (1 μM, 3 μM, and 10 μM) prior to LPS (1 μg/ml) stimulation for 24 h.

CYP2C9 = target: T3, CYP2C9 (Homo sapiens, UniProt P11712); assay: Cytochrome P450 inhibition in human liver microsomes using LC-MS/MS, CYP2C9; format: in vitro ADME
T3 construct: with pooled human liver microsomes; from tissue; host or cells: pooled human liver microsomes
T3 sequence (P11712 whole entry): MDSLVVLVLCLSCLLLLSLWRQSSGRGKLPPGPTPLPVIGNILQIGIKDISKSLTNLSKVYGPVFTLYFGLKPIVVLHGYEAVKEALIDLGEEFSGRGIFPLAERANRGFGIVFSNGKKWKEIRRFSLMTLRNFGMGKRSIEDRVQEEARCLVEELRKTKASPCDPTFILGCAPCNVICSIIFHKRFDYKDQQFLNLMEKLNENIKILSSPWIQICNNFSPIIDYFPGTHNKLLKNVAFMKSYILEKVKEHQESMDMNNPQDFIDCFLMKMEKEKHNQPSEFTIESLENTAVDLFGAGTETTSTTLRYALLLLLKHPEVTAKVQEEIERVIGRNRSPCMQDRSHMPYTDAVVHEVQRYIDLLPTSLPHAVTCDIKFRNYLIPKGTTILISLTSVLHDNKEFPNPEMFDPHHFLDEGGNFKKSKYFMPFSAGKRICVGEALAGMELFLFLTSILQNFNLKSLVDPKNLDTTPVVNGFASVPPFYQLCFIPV
Procedure: as §1

[1] = Releasing kinetics of ginsenoside CK from two-layer coated balloon (CK DEB), FIG. 4; format: physicochemical
[2] = Releasing kinetics of ginsenoside CK from three-layer coated stent (CK DES), FIG. 2; format: physicochemical
CYP2B6 = target: T4, CYP2B6 (Homo sapiens, UniProt P20813); assay: Cytochrome P450 inhibition in human liver microsomes using LC-MS/MS, CYP2B6; format: in vitro ADME
T4 construct: with pooled human liver microsomes; from tissue; host or cells: pooled human liver microsomes
T4 sequence (P20813 1-491): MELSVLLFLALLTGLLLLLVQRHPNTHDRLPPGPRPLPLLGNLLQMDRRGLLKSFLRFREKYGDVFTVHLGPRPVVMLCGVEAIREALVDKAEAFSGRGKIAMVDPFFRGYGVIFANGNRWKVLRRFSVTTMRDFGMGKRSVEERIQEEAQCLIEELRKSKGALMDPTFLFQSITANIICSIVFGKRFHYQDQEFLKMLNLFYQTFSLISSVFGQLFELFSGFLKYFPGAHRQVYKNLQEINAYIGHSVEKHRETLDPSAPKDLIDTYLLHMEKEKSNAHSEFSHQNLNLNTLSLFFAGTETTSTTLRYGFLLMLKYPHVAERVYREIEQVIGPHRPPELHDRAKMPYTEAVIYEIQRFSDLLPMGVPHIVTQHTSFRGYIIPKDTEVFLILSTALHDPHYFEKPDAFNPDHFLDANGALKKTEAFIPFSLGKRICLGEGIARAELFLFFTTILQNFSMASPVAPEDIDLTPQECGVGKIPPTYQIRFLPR
Procedure: as §1

CYP2D6 = target: T5, CYP2D6 (Homo sapiens, UniProt P10635); assay: Cytochrome P450 inhibition in human liver microsomes using LC-MS/MS, CYP2D6; format: in vitro ADME
T5 construct: with pooled human liver microsomes; from tissue; host or cells: pooled human liver microsomes
T5 sequence (P10635 whole entry): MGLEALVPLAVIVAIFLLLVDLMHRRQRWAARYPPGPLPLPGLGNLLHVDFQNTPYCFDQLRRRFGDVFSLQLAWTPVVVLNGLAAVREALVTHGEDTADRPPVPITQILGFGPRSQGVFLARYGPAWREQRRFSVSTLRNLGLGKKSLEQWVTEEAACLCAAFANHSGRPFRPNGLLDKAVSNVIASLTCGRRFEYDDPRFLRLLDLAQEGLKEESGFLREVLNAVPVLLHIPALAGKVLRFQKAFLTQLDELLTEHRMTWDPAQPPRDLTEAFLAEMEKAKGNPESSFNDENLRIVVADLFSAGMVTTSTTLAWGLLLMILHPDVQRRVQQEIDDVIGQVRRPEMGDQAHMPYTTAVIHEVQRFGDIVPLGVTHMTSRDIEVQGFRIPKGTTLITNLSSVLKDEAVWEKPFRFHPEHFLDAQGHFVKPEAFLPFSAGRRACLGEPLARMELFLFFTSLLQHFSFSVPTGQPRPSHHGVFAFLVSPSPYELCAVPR
Procedure: as §1

CYP3A4 = target: T6, CYP3A4 (Homo sapiens, UniProt P08684); assay: Cytochrome P450 inhibition in human liver microsomes using LC-MS/MS, CYP3A4; format: in vitro ADME; conditions: for IC50 shift (fold difference): ratio of IC50 with −NADPH to IC50 with +NADPH in the 30 min pre-incubation; for IC50: pooled human liver microsomes
T6 construct: with pooled human liver microsomes; from tissue; host or cells: pooled human liver microsomes
T6 sequence (P08684 whole entry): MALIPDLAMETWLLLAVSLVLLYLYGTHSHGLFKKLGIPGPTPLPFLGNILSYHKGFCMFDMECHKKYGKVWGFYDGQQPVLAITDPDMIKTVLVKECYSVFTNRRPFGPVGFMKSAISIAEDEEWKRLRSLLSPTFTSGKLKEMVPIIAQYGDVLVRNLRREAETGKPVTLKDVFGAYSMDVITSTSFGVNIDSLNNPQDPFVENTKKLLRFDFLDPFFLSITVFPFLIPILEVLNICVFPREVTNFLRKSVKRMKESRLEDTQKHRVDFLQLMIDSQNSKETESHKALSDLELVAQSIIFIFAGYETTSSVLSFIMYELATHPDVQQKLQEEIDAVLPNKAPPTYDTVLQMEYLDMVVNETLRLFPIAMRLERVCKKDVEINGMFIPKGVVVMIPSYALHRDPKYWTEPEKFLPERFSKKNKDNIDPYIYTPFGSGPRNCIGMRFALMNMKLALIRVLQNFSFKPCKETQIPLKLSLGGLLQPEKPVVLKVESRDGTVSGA
Procedure: as §1

[3] = 50 μM, 30 min pre-incubation in the presence or absence of NADPH

Compound: CC(C)=CCC[C@](C)(O[C@@H]1O[C@H](CO)[C@@H](O)[C@H](O)[C@H]1O)[C@H]1CC[C@]2(C)[C@@H]1[C@H](O)C[C@@H]1[C@@]3(C)CC[C@H](O)C(C)(C)[C@@H]3CC[C@]12C [CK, Ginsenoside compound K]
- inhibition at concentration of 50 μM (CYP1A2; [3]): did not inhibit
- IC50 (CYP1A2; pooled human liver microsomes, substrate Phenacetin): > 50 µM
- inhibition at concentration of 50 μM (CYP2C8; [3]): did not inhibit
- IC50 (CYP2C8; pooled human liver microsomes, substrate Amodiaquine): > 50 µM
- LPS-stimulated VCAM-1 mRNA expression (VCAM-1): significantly inhibited
- inhibition at concentration of 50 μM (CYP2C9; [3]): did not inhibit
- IC50 (CYP2C9; pooled human liver microsomes, substrate Diclofenac): > 50 µM
- amount of residual drug ([1]; after 90 days of drug release): beyond the detection/quantitation limit
- drug released (initial burst) ([1]; within one month): ~80%
- amount of residual drug in the stent ([2]; after 90 days of drug release): beyond the detection/quantitation limit
- drug released (initial burst) ([2]; within one month): ~80%
- IC50 (CYP2B6; pooled human liver microsomes, substrate Bupropion): 14.8 µM
- IC50 shift (fold difference) (CYP2B6; ratio of IC50 with −NADPH to IC50 with +NADPH in the 30 min pre-incubation): 1.08 fold
- inhibition at concentration of 50 μM (CYP2D6; [3]): did not inhibit
- IC50 (CYP2D6; pooled human liver microsomes, substrate Dextromethorphan): > 50 µM
- IC50 shift (fold difference) (CYP3A4; CYP3A4(M), midazolam as substrate): 0.98 fold
- IC50 shift (fold difference) (CYP3A4; CYP3A4(T), testosterone as substrate): 1.06 fold
- IC50 (CYP3A4; substrate Midazolam): 9.76 µM
- IC50 (CYP3A4; substrate Testosterone): 13.9 µM
